Data reported in patent US8076311B2, “Compositions and methods for modulating the immune system” (priority 2006, dated 2011).
Read-outs that look alike come from different tables or passages of the source.

What was measured:
B lymphocyte = assay: Patient case study: B lymphocyte competence (proliferation in response to PWM); assay type: in vivo, human
Experimental: (§1) The patient was treated with a Formula 2 compound and blood cell parameters were monitored. The sample size for this experiment was 1, consisting of subject 1. Subject 1 is an immune comprised patient with multiple recurrent infectious bouts requiring hospitalization while in a nearly moribund condition began treatment with the experimental drug Isopentyl adenosine (IPA).
(§2) The subject initially received IPA (see FIGS. 1 and 2). T and B lymphocyte competence as measured by the ability of these cells to proliferate in response to specific stimulating mitogens (PHA for T cells and PWM for B cells) which was monitored on a weekly basis until death. As shown in FIGS. 1 and 2 respectively the subject's T and B lymphocyte competence on was well below normal.

T lymphocyte [1] = assay: Patient case study: T lymphocyte competence (proliferation in response to PHA); assay type: in vivo, human
Experimental: as §1, §2

immune comprised patient = assay: Patient case study: clinical status; assay type: in vivo, human
Experimental: The patient was treated with a Formula 2 compound and blood cell parameters were monitored. The sample size for this experiment was 1, consisting of subject 1. Subject 1 is an immune comprised patient with multiple recurrent infectious bouts requiring hospitalization while in a nearly moribund condition began treatment with the experimental drug Isopentyl adenosine (IPA). The subject had been hospitalized with avert life-threatening infections. The subject's total white blood cell counts were in the range of 2200-4900 for the three month period preceding hospitalization. […] The patient was hospitalized from depression, exhaustion, bronchial infection, severe diarrhea, severe weight loss and complete loss of appetite and spiked fever. The patient's weight was 98 pounds.

T lymphocyte [2] = settings: patients receiving immune stimulating agents; cited from earlier work
bone marrow cells = settings: after the 15th day of post-irradiation
Experimental: (§3) Thirty six animals were divided into four groups of nine animals each. […] Group 4 was treated as normal animals without any treatment. On days 5, 10 and 15 after irradiation (750) rads three animals from each group was sacrificed. Blood was collected to heparinized tubes, and plasma was removed and following parameters were assayed in the blood. Activity of the enzyme SOD was measured by NBT reduction method of McCord and Fridovich. CAT activity was estimated by the method of Aebi by measuring the rate of decomposition of hydrogen peroxide at 240 nm. Level of GSH was assayed by the method of Moron et al based on the reaction with DTBN. Assay of GPX followed the method of Hafeman based on the degradation of H2O2 in the presence of GSH. The method of Habig was followed to assay the activity of GST based on the rate of increase in the conjugate formation between GSH and CDNB.
The femurs of three above animals were dissected out and bone marrow cells were flushed into phosphate buffered saline (pH 7.4) containing 2% foetal calf serum. The cells were washed and bone marrow viability was determined by the method of Sredni. The results were expressed as number of live bone marrow cells ×10(6)/femur.

irradiated animals = assay: Effect of oltipraz on haematological parameters and body weight of irradiated animals; settings: for Body weight on day 6: 750 rads, p>0.05
GSH = settings: oltipraz continuously administered group; 15th day; p<0.001
Experimental: as §3

GPX = settings: group III; 15th day after irradiation; p<−0.001
Experimental: as §3

SOD = settings: continuous administration; maximum value on the 15th day after irradiation
Experimental: as §3

GST = settings: group III; 15th day; p<−0.01
Experimental: as §3

CAT = settings: continuous administration; maximum on tenth day after irradiation
Experimental: as §3

lipid peroxidation = settings: group III; day 15; liver; p<−0.001
Experimental: The liver of the sacrificed animals were excised quickly washed in ice-cold saline and kept at −70° C. till the day of analysis. On the day of analysis 25% homogenate was pre-pared in tris-HCl buffer (0.1 M, pH 7.4). The homogenate was centrifuged at 12000 rpm for 30 minutes and supernatant was used to determine the tissue lipid peroxide levels (LPO) using the TBA method of Okhawa et al.

[3] = resumed for one week with one-half the recommended dosage
[4] = within 7 days of drug therapy initiation
[5] = within a month of resuming therapy at recommended dose levels
[6] = first period of constant oral doses of IPA

For `CC(C)=CCNc1ncnc2c1ncn2[C@@H]1O[C@H](CO)[C@@H](O)[C@H]1O` [IPA, N6-(Δ2-isopentenyl) adenosine], the B lymphocyte activity (B lymphocyte; [3]) was “slight rise”, the “Time to major rapid recovery of B lymphocyte competence after initiation of therapy” value (B lymphocyte; subject 1, oral IPA) was “less than 7 days” and the “Level of B lymphocyte competence” value (B lymphocyte; [4]) was “above the lower limits-of the normal donor's reactivity”. The B lymphocyte competence (B lymphocyte; [5]) was “somewhat below lower normal limits”, the T lymphocyte competence (T lymphocyte [1]; dosage greatly (>3×) increased) was “depression suggesting immunotoxicity” and the T lymphocyte competence (T lymphocyte [1]; [3]) was “spiked dramatically to above the lower limit of the normal range”. For the same compound, the “Time to major rapid recovery of T lymphocyte competence after initiation of therapy” value (T lymphocyte [1]; subject 1, oral IPA) was “less than 7 days”, the “Level of T lymphocyte competence” value (T lymphocyte [1]; [4]) was “above the lower limits-of the normal donor's reactivity” and the T lymphocyte competence (T lymphocyte [1]; [5]) was “well within the range of normal donor reactivity”. The T lymphocyte competence (T lymphocyte [1]; within two weeks of resuming therapy at recommended dose levels) was “nearly within the normal range”, the Fever and diarrhea (immune comprised patient; [6]) was “completely subsided” and the Weight gain (immune comprised patient; [6]) was 15 pound. The “Life after initiation of therapy” value (immune comprised patient; patient terminally moribund at start) was 5 months.

In the case of `c1ccc([C@H]2CN3CCSC3=N2)cc1` [Levamisole], the “Immune recovery capacity compared with IPA” value (T lymphocyte [2]) is given as “slower and less dramatic”.

With `Cc1c(-c2cnccn2)ssc1=S` [oltipraz] the Bone marrow viability (bone marrow cells; group II (oltipraz pre treated)) was 5.82 ×10^6 cells/femur, the Bone marrow viability (bone marrow cells; group III (oltipraz continuously administered)) was 14.32 ×10^6 cells/femur and the “Body weight on day 6” value (irradiated animals; group II: oltipraz 50 mgs/Kg ten days prior to irradiation) was 21.02±4.14. For the same compound, the “WBC at later days after irradiation” value (irradiated animals; group III (oltipraz continuously administered) compared with group I (radiation alone) and group II) was “significantly elevated WBC”, the “Body weight on day 6” value (irradiated animals; group III: oltipraz 50 mgs/Kg ten days prior to and fifteen days after irradiation) was 21.10±2.51 and the Differential count (irradiated animals; irradiated mice, oltipraz groups) was “did not show any significant variation”. For the same compound, the Total leukocyte count (irradiated animals; oltipraz 50 mgs/Kg, irradiated mice, versus radiation alone) was “increase the count”, the Hemoglobin level (irradiated animals; oltipraz continuously administered group, day 6) was 12.42±2.76 and the “Levels of GSH compared with radiation alone treated group” value (GSH) was “increased almost three times”. For the same compound, the GPX activity (GPX) was 1927.87±136.06 U/L of haemolysate, the SOD activity (SOD) was “enhanced” and the GST activity (GST) was 2.38±0.25 nano-moles of CDNB-GSH conjugate formed. For the same compound, the CAT activity (CAT) was “enhanced” and the Lipid peroxidation (lipid peroxidation) was 2.12±0.21 nano-moles of MDA formed/mg of protein.
